# Reference: patent US20130303509A1, “NAMPT INHIBITORS” (AbbVie Inc., priority 2012, published 2013)
# Test system: PC3 cells
# Test: NAMPT Cell Proliferation Assay
# Format: cell-based
# Conditions: Homo sapiens, PC-3, 120 h, 5 days incubation, cell viability by Cell Titer Glo
# Summary of the method: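 Five-day CellTiter-Glo viability readout in PC3 cells grown in RPMI/10% heat-inactivated FBS. Compounds added after overnight attachment as a 10-fold dilution series, […]. Percent inhibition fitted to sigmoidal dose-response to derive IC50.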
row,IC50 [nM],Compound
1,8.95,"O=C(Nc1ccc(OC2CCN(C(=O)CC3CCCCC3)CC2)cc1)C1CN(c2cccnc2)C1 [Example 50, N-(4-{[1-(cyclohexylacetyl)piperidin-4-yl]oxy}phenyl)-1-(pyridin-3-yl)azetidine-3-carboxamide]"
2,71.6,"Cc1ncccc1N1CC(C(=O)Nc2ccc(C3CCN(C(=O)C(C)C(C)C)CC3)cc2)C1 (centres unmarked) [Example 198, N-{4-[1-(2,3-dimethylbutanoyl)piperidin-4-yl]phenyl}-1-(2-methylpyridin-3-yl)azetidine-3-carboxamide]"
3,24.1,"O=C(Nc1ccc(OC2CN(C(=O)C3CCCCC3)C2)cc1)C1CN(c2ccnnc2)C1 [Example 255, N-(4-{[1-(cyclohexylcarbonyl)azetidin-3-yl]oxy}phenyl)-1-(pyridazin-4-yl)azetidine-3-carboxamide]"
4,3.54,"CC(C)c1ccc(C(=O)N2CCC(c3ccc(NC(=O)C4CN(c5cccnn5)C4)cc3)CC2)cc1 [Example 392, N-(4-{1-[4-(propan-2-yl)benzoyl]piperidin-4-yl}phenyl)-1-(pyridazin-3-yl)azetidine-3-carboxamide]"
5,25.9,"CCC(C)(C)C(=O)N1CCC(Oc2ccc(NC(=O)C3CN(c4ccnnc4)C3)cc2)CC1 [Example 300, N-(4-{[1-(2,2-dimethylbutanoyl)piperidin-4-yl]oxy}phenyl)-1-(pyridazin-4-yl)azetidine-3-carboxamide]"
6,6150,"O=C(Nc1ccc(S(=O)(=O)C2CCN(C(=O)c3ccccc3)CC2)cc1)C1CN(c2ccnnc2)C1 [Example 615, N-{4-[(1-benzoylpiperidin-4-yl)sulfonyl]phenyl}-1-(pyridazin-4-yl)azetidine-3-carboxamide]"
7,0.23,"CC(C)(C)CC(=O)N1CCC(c2ccc(NC(=O)C3CN(c4cccnc4)C3)cc2)CC1 [Example 132, N-{4-[1-(3,3-dimethylbutanoyl)piperidin-4-yl]phenyl}-1-(pyridin-3-yl)azetidine-3-carboxamide]"
8,84.6,"COc1cccc(C(=O)N2CCC(S(=O)(=O)c3ccc(NC(=O)C4CN(c5cccnn5)C4)cc3)CC2)c1 [Example 596, N-(4-{[1-(3-methoxybenzoyl)piperidin-4-yl]sulfonyl}phenyl)-1-(pyridazin-3-yl)azetidine-3-carboxamide]"
9,1.25,"CC[C@H](C)C(=O)N1CCC(c2ccc(NC(=O)C3CN(c4cccnc4)C3)cc2)CC1 [Example 22, N-(4-{1-[(2S)-2-methylbutanoyl]piperidin-4-yl}phenyl)-1-(pyridin-3-yl)azetidine-3-carboxamide]"
10,0.56,"O=C(Nc1ccc(O[C@@H]2CCN(C(=O)c3nccs3)C2)cc1)C1CN(c2cccnn2)C1 [Example 484, 1-(pyridazin-3-yl)-N-(4-{[(3R)-1-(1,3-thiazol-2-ylcarbonyl)pyrrolidin-3-yl]oxy}phenyl)azetidine-3-carboxamide]"
11,38.7,"O=C(Nc1ccc(OC2CN(C(=O)c3ccc(C(F)(F)F)cc3)C2)cc1)C1CN(c2ccnnc2)C1 [Example 205, 1-(pyridazin-4-yl)-N-[4-({1-[4-(trifluoromethyl)benzoyl]azetidin-3-yl}oxy)phenyl]azetidine-3-carboxamide]"
12,23.6,"O=C(Nc1ccc(C2CCN(C(=O)CCC(F)(F)F)CC2)cc1F)C1CN(c2ccnnc2)C1 [Example 872, N-{2-fluoro-4-[1-(4,4,4-trifluorobutanoyl)piperidin-4-yl]phenyl}-1-(pyridazin-4-yl)azetidine-3-carboxamide]"
13,5.72,"CCC(C)CC(=O)N1CCC(c2ccc(NC(=O)C3CN(c4cccnc4)C3)cc2)CC1 (centres unmarked) [Example 99, N-{4-[1-(3-methylpentanoyl)piperidin-4-yl]phenyl}-1-(pyridin-3-yl)azetidine-3-carboxamide]"
14,70.5,"CCC(C)(C)C(=O)N1CCC(c2ccc(C(=O)NC3CN(c4cccnn4)C3)s2)CC1 [Example 850, 5-[1-(2,2-dimethylbutanoyl)piperidin-4-yl]-N-[1-(pyridazin-3-yl)azetidin-3-yl]thiophene-2-carboxamide]"
